Source: the supplement of paper PMC10307832

Experiments:
Test in all cases: relative viability (nuclei count vs DMSO), 5 days (fraction); higher = more cells survive
[1] = system: NCI-H1648
Summary of the method: (§1)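 Nuclei were stained with Hoechst during a one-step fixation (final 0.05% Triton X-100, 1% formaldehyde, 1 ug/ml Hoechst) carried out 5 days after dosing, then counted on 4× images. The cells, lung cancer lines in 1536-well plates, had been dosed by pin tool the day after seeding with one drug alone or a fixed anchor-drug dose plus five library-drug doses (not always all listed) in √10 steps. Relative viability is the nuclei count in treated wells divided by that in vehicle wells, and each value is the median of duplicate plates.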

[2] = system: LK-2
Summary of the method: as §1

[3] = system: NCI-H1734
Summary of the method: as §1

[4] = system: A-427
Summary of the method: as §1

[5] = system: A549
Summary of the method: as §1

[6] = system: NCI-H2009
Summary of the method: as §1

[7] = system: NCI-H1650
Summary of the method: as §1

[8] = system: UMC-11
Summary of the method: as §1

**Q.** How did the relative viability ([1]; first compound 0.04 µM) turn out when `Cc1sc2c(c1C)C(c1ccc(Cl)cc1)=N[C@@H](CC(=O)OC(C)(C)C)c1nnc(C)n1-2` [JQ1] + Nc1ncn([C@H]2C[C@H](O)[C@@H](CO)O2)c(=O)n1 [Decitabine] (partner 2 µM) was run?
**A.** 0.497

**Q.** And the relative viability ([1]; first compound 0.1265 µM)?
**A.** 0.652

**Q.** And the relative viability ([1]; first compound 0.4 µM)?
**A.** 0.409

**Q.** And the relative viability ([1]; first compound 1.265 µM)?
**A.** 0.398

**Q.** And the relative viability ([1]; first compound 4 µM)?
**A.** 0.286

**Q.** What about the relative viability ([2]; first compound 0.04 µM) of the same compound?
**A.** 0.272

**Q.** What about the relative viability ([2]; first compound 0.1265 µM) of the same compound?
**A.** 0.351

**Q.** And the relative viability ([2]; first compound 0.4 µM)?
**A.** 0.27

**Q.** And the relative viability ([2]; first compound 1.265 µM)?
**A.** 0.132

**Q.** What about the relative viability ([2]; first compound 4 µM) of the same compound?
**A.** 0.129

**Q.** What about the relative viability ([3]; first compound 0.04 µM) of the same compound?
**A.** 0.492

**Q.** And the relative viability ([3]; first compound 0.1265 µM)?
**A.** 0.549

**Q.** And the relative viability ([3]; first compound 0.4 µM)?
**A.** 0.523

**Q.** And the relative viability ([3]; first compound 1.265 µM)?
**A.** 0.408

**Q.** What about the relative viability ([3]; first compound 4 µM) of the same compound?
**A.** 0.364

**Q.** What about the relative viability ([4]; first compound 0.04 µM) of the same compound?
**A.** 0.57

**Q.** And the relative viability ([4]; first compound 0.1265 µM)?
**A.** 0.506

**Q.** What about the relative viability ([4]; first compound 0.4 µM) of the same compound?
**A.** 0.591

**Q.** And the relative viability ([4]; first compound 1.265 µM)?
**A.** 0.495

**Q.** What about the relative viability ([4]; first compound 4 µM) of the same compound?
**A.** 0.478

**Q.** What about the relative viability ([5]; first compound 0.04 µM) of the same compound?
**A.** 0.275

**Q.** And the relative viability ([5]; first compound 0.1265 µM)?
**A.** 0.267

**Q.** What about the relative viability ([5]; first compound 0.4 µM) of the same compound?
**A.** 0.378

**Q.** What about the relative viability ([5]; first compound 1.265 µM) of the same compound?
**A.** 0.405

**Q.** What about the relative viability ([5]; first compound 4 µM) of the same compound?
**A.** 0.252

**Q.** And the relative viability ([6]; first compound 0.04 µM)?
**A.** 0.38

**Q.** What about the relative viability ([6]; first compound 0.1265 µM) of the same compound?
**A.** 0.296

**Q.** What about the relative viability ([6]; first compound 0.4 µM) of the same compound?
**A.** 0.354

**Q.** What about the relative viability ([6]; first compound 1.265 µM) of the same compound?
**A.** 0.276

**Q.** What about the relative viability ([6]; first compound 4 µM) of the same compound?
**A.** 0.213

**Q.** What about the relative viability ([7]; first compound 0.04 µM) of the same compound?
**A.** 0.442

**Q.** What about the relative viability ([7]; first compound 0.1265 µM) of the same compound?
**A.** 0.44

**Q.** What about the relative viability ([7]; first compound 0.4 µM) of the same compound?
**A.** 0.333

**Q.** And the relative viability ([7]; first compound 1.265 µM)?
**A.** 0.185

**Q.** What about the relative viability ([7]; first compound 4 µM) of the same compound?
**A.** 0.146

**Q.** What about the relative viability ([8]; first compound 0.04 µM) of the same compound?
**A.** 0.514

**Q.** What about the relative viability ([8]; first compound 0.1265 µM) of the same compound?
**A.** 0.468

**Q.** And the relative viability ([8]; first compound 0.4 µM)?
**A.** 0.328

**Q.** And the relative viability ([8]; first compound 1.265 µM)?
**A.** 0.294

**Q.** What about the relative viability ([8]; first compound 4 µM) of the same compound?
**A.** 0.309

**Q.** For `CC(=O)O[C@@]12CO[C@@H]1C[C@H](O)[C@@]1(C)C(=O)[C@H](O)C3=C(C)[C@@H](OC(=O)[C@H](O)[C@@H](NC(=O)OC(C)(C)C)c4ccccc4)C[C@@](O)([C@@H](OC(=O)c4ccccc4)[C@H]21)C3(C)C` [Docetaxel] + Nc1ncn([C@H]2C[C@H](O)[C@@H](CO)O2)c(=O)n1 [Decitabine] (partner 2 µM), which relative viability ([1]; first compound 0.0002 µM) is on record?
**A.** 0.452

**Q.** And the relative viability ([1]; first compound 0.000632 µM)?
**A.** 0.487

**Q.** What about the relative viability ([1]; first compound 0.002 µM) of the same compound?
**A.** 0.339

**Q.** And the relative viability ([1]; first compound 0.006325 µM)?
**A.** 0.216

**Q.** What about the relative viability ([1]; first compound 0.02 µM) of the same compound?
**A.** 0.231

**Q.** What about the relative viability ([2]; first compound 0.0002 µM) of the same compound?
**A.** 0.348

**Q.** And the relative viability ([2]; first compound 0.000632 µM)?
**A.** 0.224

**Q.** And the relative viability ([2]; first compound 0.002 µM)?
**A.** 0.115

**Q.** And the relative viability ([2]; first compound 0.006325 µM)?
**A.** 0.126

**Q.** What about the relative viability ([2]; first compound 0.02 µM) of the same compound?
**A.** 0.13

**Q.** What about the relative viability ([3]; first compound 0.0002 µM) of the same compound?
**A.** 0.492

**Q.** And the relative viability ([3]; first compound 0.000632 µM)?
**A.** 0.431

**Q.** What about the relative viability ([3]; first compound 0.002 µM) of the same compound?
**A.** 0.359

**Q.** What about the relative viability ([3]; first compound 0.006325 µM) of the same compound?
**A.** 0.307

**Q.** And the relative viability ([3]; first compound 0.02 µM)?
**A.** 0.218

**Q.** What about the relative viability ([4]; first compound 0.0002 µM) of the same compound?
**A.** 0.568

**Q.** And the relative viability ([4]; first compound 0.000632 µM)?
**A.** 0.569

**Q.** What about the relative viability ([4]; first compound 0.002 µM) of the same compound?
**A.** 0.443

**Q.** And the relative viability ([4]; first compound 0.006325 µM)?
**A.** 0.3

**Q.** And the relative viability ([4]; first compound 0.02 µM)?
**A.** 0.222

**Q.** And the relative viability ([5]; first compound 0.0002 µM)?
**A.** 0.297

**Q.** And the relative viability ([5]; first compound 0.000632 µM)?
**A.** 0.18

**Q.** What about the relative viability ([5]; first compound 0.002 µM) of the same compound?
**A.** 0.0587

**Q.** And the relative viability ([5]; first compound 0.006325 µM)?
**A.** 0.0522

**Q.** What about the relative viability ([5]; first compound 0.02 µM) of the same compound?
**A.** 0.0318

**Q.** And the relative viability ([6]; first compound 0.0002 µM)?
**A.** 0.438

**Q.** And the relative viability ([6]; first compound 0.000632 µM)?
**A.** 0.376

**Q.** What about the relative viability ([6]; first compound 0.002 µM) of the same compound?
**A.** 0.3

**Q.** What about the relative viability ([6]; first compound 0.006325 µM) of the same compound?
**A.** 0.263

**Q.** And the relative viability ([6]; first compound 0.02 µM)?
**A.** 0.181

**Q.** And the relative viability ([7]; first compound 0.0002 µM)?
**A.** 0.376

**Q.** And the relative viability ([7]; first compound 0.000632 µM)?
**A.** 0.323

**Q.** What about the relative viability ([7]; first compound 0.002 µM) of the same compound?
**A.** 0.246

**Q.** What about the relative viability ([7]; first compound 0.006325 µM) of the same compound?
**A.** 0.2

**Q.** What about the relative viability ([7]; first compound 0.02 µM) of the same compound?
**A.** 0.193

**Q.** What about the relative viability ([8]; first compound 0.0002 µM) of the same compound?
**A.** 0.399

**Q.** And the relative viability ([8]; first compound 0.000632 µM)?
**A.** 0.613

**Q.** What about the relative viability ([8]; first compound 0.002 µM) of the same compound?
**A.** 0.401

**Q.** And the relative viability ([8]; first compound 0.006325 µM)?
**A.** 0.345

**Q.** And the relative viability ([8]; first compound 0.02 µM)?
**A.** 0.238
